Experimental data published in ChEMBL document CHEMBL1127993, “4-[5-(2,3-dihydroxyphenyl)pentyloxy]-2-hydroxy-3-propylbenzoic acid (Ro 24-0553): an orally active 5-lipoxygenase inhibitor with antiinflammatory activity” (Bioorg Med Chem Lett, 1994).
Activity calls are given as the source filed them. The rule behind the calls is not given here.

What was measured:
[1] = molecular target: T1, Polyunsaturated fatty acid 5-lipoxygenase (Rattus norvegicus, UniProt P12527); experiment: Inhibition of 5-lipoxygenase from rat basophilic leukemia(RBL-1) cells; assay type: cell-based
T1 sequence (P12527 whole entry): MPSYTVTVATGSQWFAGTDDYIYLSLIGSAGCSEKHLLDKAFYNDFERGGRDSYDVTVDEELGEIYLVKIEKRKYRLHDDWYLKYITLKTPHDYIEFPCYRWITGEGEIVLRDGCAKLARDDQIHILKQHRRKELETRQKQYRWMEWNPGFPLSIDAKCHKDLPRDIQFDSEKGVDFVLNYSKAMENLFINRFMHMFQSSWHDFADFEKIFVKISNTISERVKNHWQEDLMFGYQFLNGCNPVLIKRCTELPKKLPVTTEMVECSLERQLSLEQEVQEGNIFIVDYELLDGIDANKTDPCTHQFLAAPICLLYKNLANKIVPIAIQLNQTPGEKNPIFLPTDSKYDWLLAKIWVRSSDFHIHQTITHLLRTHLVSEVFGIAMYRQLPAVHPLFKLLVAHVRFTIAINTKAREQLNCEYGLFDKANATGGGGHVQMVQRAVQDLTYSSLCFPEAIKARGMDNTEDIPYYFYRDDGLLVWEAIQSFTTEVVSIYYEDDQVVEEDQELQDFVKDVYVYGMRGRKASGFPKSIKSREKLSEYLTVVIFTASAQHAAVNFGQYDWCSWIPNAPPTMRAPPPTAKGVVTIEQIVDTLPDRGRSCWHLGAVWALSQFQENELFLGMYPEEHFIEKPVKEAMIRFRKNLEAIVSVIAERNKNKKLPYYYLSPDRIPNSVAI

Rattus norvegicus [2] = experiment: In vivo inhibitory activity against acetic acid-induced colitis of rat at 10 mg/kg upon peroral administration; assay type: functional; conditions: route oral
Rattus norvegicus [3] = species on record: Rattus norvegicus; experiment: Inhibitory activity against peroxidation of rat cardiac membrane liposomes at 1 uM concentration; assay type: functional; conditions: Microsome
Rattus norvegicus [4] = species on record: Rattus norvegicus; experiment: Inhibitory activity against peroxidation of rat cardiac membrane liposomes; assay type: functional
Rattus norvegicus [5] = experiment: Reduction of erythema at 1 mg/kg in acetic acid-induced colitis of the rat; assay type: functional
Homo sapiens [6] = species on record: Homo sapiens; experiment: Inhibition of LTB4 biosynthesis in human neutrophils
Rattus norvegicus [7] = experiment: Percent reduction of neutrophil accumulatiom with an minimum effective dose of 100 ug/kg when administered orally twice daily for two days before induction of acetic acid-induced colitis in the rat; assay type: functional
Rattus norvegicus [8] = experiment: In vivo inhibitory activity against acetic acid-induced colitis of rat at 1 mg/kg upon peroral administration; assay type: functional; conditions: route oral
Mus musculus [9] = experiment: Inhibition of the AA-induced edema in mouse ear inflammation test at 1 mg; assay type: functional
Rattus norvegicus [10] = experiment: Percent reduction of neutrophil accumulatiom with an minimum effective dose of 1 mg/kg when administered orally twice daily for two days before induction of acetic acid-induced colitis in the rat; assay type: functional; conditions: route oral
Mus musculus [11] = species on record: Mus musculus; experiment: Myeloperoxidase activity was determined as a measure of neutrophil infiltration at a 0.1 mg dose in the AA treated mice; assay type: functional
Rattus norvegicus [12] = experiment: Reduction of necrosis at 1 mg/kg in acetic acid-induced colitis of the rat; assay type: functional
Rattus norvegicus [13] = species on record: Rattus norvegicus; experiment: Inhibition of LTB4 biosynthesis in ionophore-stimulated rat peritoneal macrophages; assay type: functional
Mus musculus [14] = experiment: Inhibition of the TPA-induced edema in mouse ear inflammation test at a topical dose of 0.4 mg; assay type: functional
Mus musculus [15] = species on record: Mus musculus; experiment: Myeloperoxidase activity was determined as a measure of neutrophil infiltration at the 0.4 mg dose in the TPA treated mice; assay type: functional
Mononuclear cell line = experiment: In vitro inhibitory activity against interleukin-1-beta biosynthesis by isolated human mononuclear cells at 10 uM; assay type: functional
Rattus norvegicus [16] = species on record: Rattus norvegicus; experiment: Inhibition of PGE-2 biosynthesis in ionophore stimulated rat peritoneal macrophages; assay type: functional
Rattus norvegicus [17] = experiment: Inhibitory activity in rat colitis model at an oral dose of 10 mg/kg; IA means inactive; assay type: functional, organism-based; parameters: dose 10 mg/kg
Rattus norvegicus [18] = experiment: Inhibition of neutrophil infiltration at 100 mg/kg in rats; assay type: functional
Homo sapiens [19] = species on record: Homo sapiens; experiment: Inhibitory activity against interleukin-1 production by LPS-stimulated human monocytes; IC50 range=4-8 uM; assay type: functional

Structure (SMILES) | IC50 [1] | inhibition in vivo at 10 mg/kg (Rattus norvegicus [2]) | inhibition (Rattus norvegicus [3]) | IC50 (Rattus norvegicus [4]) | other results
O=C(O)c1ccc(OCCCCCCc2cccc(O)c2O)cc1 | 200 nM | 89% | 9% | – | –
CCCc1c(OCCCCCCCCc2cccc(O)c2O)ccc(C(=O)O)c1O | 90 nM | 35% | – | 300 nM | –
CCCc1cc(C(=O)O)ccc1OCCCCCCc1cccc(O)c1O | – | – | – | 680 nM | –
CCCc1c(OCCCCCc2cccc(O)c2O)ccc(C(=O)O)c1O | – | – | – | – | Reduction (Rattus norvegicus [5]): 55%; IC50 (Homo sapiens [6]): 1000 nM; Reduction (Rattus norvegicus [7]): 38%; inhibition in vivo at 1 mg/kg (Rattus norvegicus [8]): 88%; Inhibition (Mus musculus [9]): 47%; Reduction (Rattus norvegicus [10]): 88%; Inhibition (Mus musculus [11]): 86%; Reduction (Rattus norvegicus [12]): 77%; IC50 (Rattus norvegicus [13]): 600 nM; Inhibition (Mus musculus [14]): 26%; Inhibition (Mus musculus [15]): 88%; inhibition at 10 µM (Mononuclear cell line): 40%; IC50 (Rattus norvegicus [16]): 35000 nM
CCCc1c(OCCCCCCc2cccc(O)c2O)ccc(C(=O)O)c1O | – | 89% | – | 300 nM | –
CCCc1c(OCCc2cccc(O)c2O)ccc(C(=O)O)c1O | 250 nM | – | 17% | – | –
O=C(O)c1ccc(OCCCCCCc2cccc(O)c2O)cc1O | 300 nM | – | 33% | – | inhibition in vivo at 1 mg/kg (Rattus norvegicus [8]): 95%
CCCc1c(OCCCCc2cccc(O)c2O)ccc(C(=O)O)c1O | – | 73% | – | 500 nM | –
CCCc1c(OCCCCCCCCCCc2cccc(O)c2O)ccc(C(=O)O)c1O | – | – | – | 400 nM | –
CCCc1c(OCCCc2cccc(O)c2O)ccc(C(=O)O)c1O | 170 nM | 54% | 35% | – | –
CC(Cc1ccc(O)c(O)c1)C(C)Cc1ccc(O)c(O)c1 (configuration not stated) [NORDIHYDROGUAIARETIC ACID] | – | – | – | 100 nM | inhibition (Rattus norvegicus [17]): inactive; inhibition in vivo at 100 mg/kg (Rattus norvegicus [18]): 70%; IC50 (Homo sapiens [19]): 8000 nM
